# According to patent US10874743B2, “IRAK degraders and uses thereof” (Kymera Therapeutics, Inc., priority 2017, dated 2020):
# “And” between values parts separate entries of the source, which are not always exact repeats. Equal values may be shown once. Read-outs that look alike come from different tables or passages of the source.
# Assay: Pharmacokinetics in CD-1 mice (plasma concentrations, PK parameters)
# Type: in vivo
# Protocol: Pharmacokinetics for I-127, I-172 and I-210 were determined in Sprague Dawley rats or CD-1 mice by dosing intravenous (IV), subcutaneous (SC) or per oral (PO) using facility SOPs and sampling plasma at required time points. Species, formulation, route of administration and time points samples are listed below for each compound.
# Compounds were extracted from plasma, injected on reverse phase HPLC, eluted with a gradient from 5% to 95% acetonitrile in water and quantified by mass spectrometry with internal standard. Data are expressed in ng compound per mL of plasma.
# [1] = mouse (CD1) iv 2 mg/kg, individual Mouse 1-3, 2 mg/kg
# [2] = mouse (CD1) po 30 mg/kg, individual Mouse 4-6, 30 mg/kg
# [3] = mouse (CD1) sc 30 mg/kg, individual Mouse 7-9, 30 mg/kg
smiles,measurement,setting,value
"O=C1CCC(N2C(=O)c3cccc(NCCOCCOCCNCc4ccc(-n5cc(NC(=O)c6coc(-c7ccnc(NCC8CC8)c7)n6)c(C(F)F)n5)cc4)c3C2=O)C(=O)N1 (stereo not shown) [I-210, 2-[2-(Cyclopropylmethylamino)-4-pyridyl]-N-[3-(difluoromethyl)-1-[4-[[2-[2-[2-[[2-(2,6-dioxo-3-piperidyl)-1,3-dioxoisoindolin-4-yl]amino]ethoxy]ethoxy]ethylamino]methyl]phenyl]pyrazol-4-yl]oxazole-4-carboxamide]",Tmax,"CD-1, mouse, plasma, sc, 30 mg/kg, mouse (CD1) sc 30 mg/kg, Mean, read-out: Tmax",2.33 h
same,half-life,"CD-1, mouse, plasma, sc, 30 mg/kg, mouse (CD1) sc 30 mg/kg, individual Mouse 7-9",4.34 h
same,AUC(0-inf),"CD-1, mouse, plasma, sc, 30 mg/kg, mouse (CD1) sc 30 mg/kg, individual Mouse 7-9, read-out: AUCInf",1000 ng·h/mL
same,AUC(0-t),"CD-1, mouse, plasma, sc, 30 mg/kg, mouse (CD1) sc 30 mg/kg, individual Mouse 7-9, read-out: AUClast",980 ng·h/mL
same,Cmax,"CD-1, mouse, plasma, sc, 30 mg/kg, mouse (CD1) sc 30 mg/kg, individual Mouse 7-9, read-out: Cmax",107 ng/mL
same,MRT inf,"CD-1, mouse, plasma, sc, 30 mg/kg, mouse (CD1) sc 30 mg/kg, individual Mouse 7-9, read-out: MRTInf_obs",6.06 h
same,Concentration,"mouse (CD1) iv 2 mg/kg, 5 min, individual Mouse 1-3, 2 mg/kg",495 ng/mL and 692 ng/mL
same,Concentration,"mouse (CD1) iv 2 mg/kg, 0.25 h, individual Mouse 1-3, 2 mg/kg",382 ng/mL and 424 ng/mL
same,Concentration,"mouse (CD1) iv 2 mg/kg, 0.5 h, individual Mouse 1-3, 2 mg/kg",238 ng/mL and 306 ng/mL
same,Concentration,"mouse (CD1) iv 2 mg/kg, 1 h, individual Mouse 1-3, 2 mg/kg",164 ng/mL and 195 ng/mL
same,Concentration,"mouse (CD1) iv 2 mg/kg, 2 h, individual Mouse 1-3, 2 mg/kg",92.5 ng/mL and 90.7 ng/mL
same,Concentration,"mouse (CD1) iv 2 mg/kg, 4 h, individual Mouse 1-3, 2 mg/kg",20.2 ng/mL and 25.6 ng/mL
same,Concentration,"mouse (CD1) iv 2 mg/kg, 8 h, individual Mouse 1-3, 2 mg/kg",4.92 ng/mL and 4.93 ng/mL
same,Concentration,"mouse (CD1) iv 2 mg/kg, 24 h, individual Mouse 1-3",BLOQ
same,AUC_%Extrap_obs,"mouse (CD1) iv 2 mg/kg, Mean",1.66%
same,AUClast/D,"mouse (CD1) iv 2 mg/kg, Mean",331 h·ng/mL per mg/kg
same,Cl_obs,"mouse (CD1) iv 2 mg/kg, Mean",49.9 mL/min/kg
same,Vss_obs,"mouse (CD1) iv 2 mg/kg, Mean",4.48 L/kg
same,AUCInf,[1],597 ng·h/mL and 706 ng·h/mL
same,AUC_%Extrap_obs,[1],1.76% (2×) and 1.47%
same,AUClast,[1],586 ng·h/mL and 695 ng·h/mL
same,AUClast/D,[1],351 h·ng/mL per mg/kg and 293 h·ng/mL per mg/kg and 348 h·ng/mL per mg/kg
same,C0,[1],563 ng/mL and 884 ng/mL
same,Cl_obs,[1],46.7 mL/min/kg and 55.8 mL/min/kg and 47.2 mL/min/kg
same,MRTInf_obs,[1],1.41 h
same,T1/2,[1],1.48 h and 1.46 h
same,Vss_obs,[1],4.42 L/kg and 5.04 L/kg and 4.00 L/kg
same,Concentration,"mouse (CD1) po 30 mg/kg, 0.25 h, individual Mouse 4-6, 30 mg/kg",55.9 ng/mL and 23.7 ng/mL and 12.8 ng/mL
same,Concentration,"mouse (CD1) po 30 mg/kg, 0.5 h, individual Mouse 4-6, 30 mg/kg",120 ng/mL and 23.0 ng/mL and 22.2 ng/mL
same,Concentration,"mouse (CD1) po 30 mg/kg, 1 h, individual Mouse 4-6, 30 mg/kg",153 ng/mL and 16.9 ng/mL and 45.1 ng/mL
same,Concentration,"mouse (CD1) po 30 mg/kg, 2 h, individual Mouse 4-6, 30 mg/kg",91.1 ng/mL and 112 ng/mL
same,Concentration,"mouse (CD1) po 30 mg/kg, 4 h, individual Mouse 4-6, 30 mg/kg",143 ng/mL and 123 ng/mL
same,Concentration,"mouse (CD1) po 30 mg/kg, 8 h, individual Mouse 4-6, 30 mg/kg",34.8 ng/mL and 17.1 ng/mL and 16.4 ng/mL
same,Concentration,"mouse (CD1) po 30 mg/kg, 24 h, individual Mouse 4-6",BLOQ
same,AUC_%Extrap_obs,"mouse (CD1) po 30 mg/kg, Mean",9.8%
same,AUClast/D,"mouse (CD1) po 30 mg/kg, Mean",22.5 h·ng/mL per mg/kg
same,F,"mouse (CD1) po 30 mg/kg, Mean",7.47%
same,AUCInf,[2],681 ng·h/mL and 662 ng·h/mL
same,AUC_%Extrap_obs,[2],14.2% and 7.97% and 7.15%
same,AUClast,[2],627 ng·h/mL and 615 ng·h/mL
same,AUClast/D,[2],26.2 h·ng/mL per mg/kg and 20.9 h·ng/mL per mg/kg and 20.5 h·ng/mL per mg/kg
same,Cmax,[2],143 ng/mL and 123 ng/mL
same,F,[2],9.09% and 6.76% and 6.57%
same,MRTInf_obs,[2],4.24 h and 3.97 h
same,T1/2,[2],2.20 h and 2.00 h
same,Concentration,"mouse (CD1) sc 30 mg/kg, 0.25 h, individual Mouse 7-9, 30 mg/kg",93.0 ng/mL and 70.1 ng/mL
same,Concentration,"mouse (CD1) sc 30 mg/kg, 0.5 h, individual Mouse 7-9, 30 mg/kg",101 ng/mL and 66.6 ng/mL
same,Concentration,"mouse (CD1) sc 30 mg/kg, 1 h, individual Mouse 7-9, 30 mg/kg",107 ng/mL and 76.5 ng/mL
same,Concentration,"mouse (CD1) sc 30 mg/kg, 2 h, individual Mouse 7-9, 30 mg/kg",115 ng/mL and 81.1 ng/mL
same,Concentration,"mouse (CD1) sc 30 mg/kg, 4 h, individual Mouse 7-9, 30 mg/kg",91.8 ng/mL and 105 ng/mL
same,Concentration,"mouse (CD1) sc 30 mg/kg, 8 h, individual Mouse 7-9, 30 mg/kg",49.0 ng/mL and 42.0 ng/mL
same,Concentration,"mouse (CD1) sc 30 mg/kg, 24 h, individual Mouse 7-9, 30 mg/kg",2.88 ng/mL and 2.05 ng/mL
same,AUC_%Extrap_obs,"mouse (CD1) sc 30 mg/kg, Mean",1.60%
same,AUClast/D,"mouse (CD1) sc 30 mg/kg, Mean",33.9 h·ng/mL per mg/kg
same,F,"mouse (CD1) sc 30 mg/kg, Mean",10.3%
same,AUCInf,[3],1119 ng·h/mL and 983 ng·h/mL
same,AUC_%Extrap_obs,[3],2.26% and 1.48% and 1.07%
same,AUClast,[3],1102 ng·h/mL and 973 ng·h/mL
same,AUClast/D,[3],32.7 h·ng/mL per mg/kg and 36.7 h·ng/mL per mg/kg and 32.4 h·ng/mL per mg/kg
same,Cmax,[3],115 ng/mL and 105 ng/mL
same,F,[3],9.94% and 11.1% and 9.75%
same,MRTInf_obs,[3],5.82 h and 5.73 h
same,T1/2,[3],3.98 h and 3.56 h
same,Tmax,[3],1 h
